Results published in ChEMBL document CHEMBL1201862, “PubChem BioAssay data set” (2004).
One block for each compound: values may come before it. Activity calls are given as the source filed them.

Key:
[1] = target: T1, RNA-binding protein pos-1 (Caenorhabditis elegans, UniProt G5EF15); experiment: inhibitors of POS-1/mex-3 RNA binding, dose response, biochemical, fluorescence polarization (AID 1964);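 further: purified POS-1 fused to maltose binding protein made in E. coli; potency of compounds blocking POS-1 binding to fluorescent RNA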
T1 sequence (G5EF15 whole entry): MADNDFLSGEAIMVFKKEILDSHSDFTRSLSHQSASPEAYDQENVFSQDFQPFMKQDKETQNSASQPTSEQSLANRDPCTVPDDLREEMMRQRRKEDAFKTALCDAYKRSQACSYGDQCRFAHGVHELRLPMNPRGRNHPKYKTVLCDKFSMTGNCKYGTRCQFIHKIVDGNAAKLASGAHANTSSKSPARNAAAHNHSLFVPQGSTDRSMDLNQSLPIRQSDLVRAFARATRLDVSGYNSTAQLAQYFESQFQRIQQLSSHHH

[2] = target: T2, Histone-lysine N-methyltransferase NSD2 (Homo sapiens, UniProt O96028); type: biochemical
T2 sequence (O96028 whole entry): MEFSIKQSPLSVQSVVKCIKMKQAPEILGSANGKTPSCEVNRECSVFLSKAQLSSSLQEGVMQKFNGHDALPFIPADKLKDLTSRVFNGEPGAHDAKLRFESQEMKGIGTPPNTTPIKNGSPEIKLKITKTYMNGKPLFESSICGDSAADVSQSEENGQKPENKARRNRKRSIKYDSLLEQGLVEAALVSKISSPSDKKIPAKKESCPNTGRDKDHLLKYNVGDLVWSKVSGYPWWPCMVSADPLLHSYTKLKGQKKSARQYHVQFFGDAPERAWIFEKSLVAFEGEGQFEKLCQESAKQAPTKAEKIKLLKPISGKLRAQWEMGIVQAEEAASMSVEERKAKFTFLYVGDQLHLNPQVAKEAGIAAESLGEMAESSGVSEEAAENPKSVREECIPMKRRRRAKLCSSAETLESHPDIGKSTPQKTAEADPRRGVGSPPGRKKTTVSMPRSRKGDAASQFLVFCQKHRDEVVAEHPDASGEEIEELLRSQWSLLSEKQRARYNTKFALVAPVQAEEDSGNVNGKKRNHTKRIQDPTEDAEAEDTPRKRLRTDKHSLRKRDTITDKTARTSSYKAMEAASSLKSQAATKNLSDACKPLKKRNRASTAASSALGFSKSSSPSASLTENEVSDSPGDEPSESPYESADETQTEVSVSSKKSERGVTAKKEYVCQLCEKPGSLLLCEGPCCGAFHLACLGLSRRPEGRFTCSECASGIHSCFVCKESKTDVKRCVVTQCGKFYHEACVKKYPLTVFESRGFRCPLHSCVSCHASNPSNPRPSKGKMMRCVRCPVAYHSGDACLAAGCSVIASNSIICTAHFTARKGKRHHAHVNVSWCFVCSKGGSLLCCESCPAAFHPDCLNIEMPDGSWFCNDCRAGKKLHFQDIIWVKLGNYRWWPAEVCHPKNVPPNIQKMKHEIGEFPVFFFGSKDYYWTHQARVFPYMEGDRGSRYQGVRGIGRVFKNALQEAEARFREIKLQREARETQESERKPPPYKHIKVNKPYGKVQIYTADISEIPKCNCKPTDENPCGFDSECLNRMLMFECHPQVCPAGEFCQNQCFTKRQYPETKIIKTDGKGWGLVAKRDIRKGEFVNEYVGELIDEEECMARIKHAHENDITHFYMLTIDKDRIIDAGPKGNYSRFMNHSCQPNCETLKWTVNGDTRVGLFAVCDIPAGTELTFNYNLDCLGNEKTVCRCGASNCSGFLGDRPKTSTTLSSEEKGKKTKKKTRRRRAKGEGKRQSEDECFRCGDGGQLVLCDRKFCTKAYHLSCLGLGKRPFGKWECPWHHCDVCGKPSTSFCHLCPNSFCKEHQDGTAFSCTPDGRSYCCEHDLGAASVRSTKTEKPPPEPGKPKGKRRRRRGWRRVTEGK

[3] = THP-1 cell cytotoxicity, dose response, cytotoxicity control for Vif-APOBEC3G degradation inhibitor project, THP-1 cells (AID 1117359); type: functional; settings: Human immunodeficiency virus 1, THP-1
[4] = target: T3, Zinc finger protein mex-5 (Caenorhabditis elegans, UniProt Q9XUB2); experiment: MEX-5/TCR-2 RNA interaction inhibitors, dose response, biochemical, C. elegans, fluorescence polarization (AID 1960)
T3 sequence (Q9XUB2 whole entry): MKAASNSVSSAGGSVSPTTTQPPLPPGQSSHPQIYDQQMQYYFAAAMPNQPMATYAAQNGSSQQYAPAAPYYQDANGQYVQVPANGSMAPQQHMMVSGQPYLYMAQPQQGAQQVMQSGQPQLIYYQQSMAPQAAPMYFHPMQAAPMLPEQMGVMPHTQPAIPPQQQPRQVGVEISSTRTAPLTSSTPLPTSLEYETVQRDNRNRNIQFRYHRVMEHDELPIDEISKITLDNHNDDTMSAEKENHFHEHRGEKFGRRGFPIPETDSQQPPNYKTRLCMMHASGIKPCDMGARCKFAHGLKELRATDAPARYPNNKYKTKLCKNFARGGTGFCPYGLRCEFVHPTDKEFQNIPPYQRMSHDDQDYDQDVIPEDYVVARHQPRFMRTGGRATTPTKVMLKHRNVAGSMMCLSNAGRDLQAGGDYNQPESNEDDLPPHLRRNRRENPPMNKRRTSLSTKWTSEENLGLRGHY

[5] = target: Glutathione-S-transferase (Schistosoma japonicum, UniProt Q26513); experiment: biotin-GST/anti-GST TR-FRET signal inhibitors, dose response, artefact control for Vif-APOBEC3G degradation inhibitor project, biochemical (AID 1117362); type: functional
[6] = target: T4, Polyadenylate-binding protein 1 (Homo sapiens, UniProt P11940); experiment: PABP1 MLLE–PAM2 binding inhibitor potency, dose response, biochemical, fluorescence polarization, FITC-PAM2 peptide (AID 602259); type: functional; settings: read-out: IC50_Mean
[7] = target: T4, Polyadenylate-binding protein 1; experiment: PABP1 MLLE–PAM2 interaction inhibitors, dose response, miRNA deadenylation inhibitor project, biochemical, fluorescence polarization, Cy5-PAM2 peptide, secondary (AID 602260); type: functional; settings: read-out: IC50_Mean
[8] = reduction of Shn3 3'UTR firefly luciferase signal, dose response, Schnurri-3 inhibitor project, cell-based, Clone20 osteoblasts, cherry-pick, set 2 (AID 720490); type: functional;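 further: actives lower the luminescence signal as inhibitors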
Protein Wnt-3a = Protein Wnt-3a (Mus musculus, UniProt P27467); experiment: Wnt3a-driven reporter signaling inhibition, dose response, selectivity assay for Gli-SUFU antagonist project, Wnt-LIGHT cells, luminescence (AID 651570); type: functional; settings: read-out: IC50_Mean;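 further: Wnt-LIGHT reporter cells stimulated with conditioned medium from Wnt3a-producing cells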
[9] = Shn3 3'UTR reporter inhibitors, dose response, cell-based, Clone20 osteoblasts, firefly luciferase, cherry-picked (AID 624132); type: functional;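 further: firefly luciferase luminescence from reporter carrying the Shn3 3'UTR in osteoblasts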
[10] = HepG2 cell cytotoxicity, dose response, cytotoxicity control for Shn3 inhibitor project, CellTiter-Glo, cherry-picked (AID 624134); type: functional, cell-based
[11] = control 3'UTR Renilla luciferase suppression, dose response, counter-screen for Shn3 inhibitor project, cell-based, Clone20-Shn3RL, cherry-picked (AID 624133); type: functional
[12] = target: Peroxisome proliferator-activated receptor gamma/Nuclear receptor corepressor 2 (Homo sapiens, UniProt P37231+Q9Y618); experiment: Counterscreen for NR2E3 inverse agonists: TR-FRET-based biochemical high throughput dose response assay to identify inverse agonists of the interaction between peroxisome proliferator-activated receptor gamma (PPARg) and nuclear receptor co-repressor 2 (NCOR2).; type: functional
[13] = target: Photoreceptor-specific nuclear receptor (Homo sapiens, UniProt Q9Y5X4); experiment: NR2E3 inverse agonists, dose response, biochemical, TR-FRET (AID 463256); type: functional
[14] = target: Voltage-gated inwardly rectifying potassium channel KCNH2 (Homo sapiens, UniProt Q12809); experiment: hERG protection from proarrhythmic block, potency, dose response, cell-based, thallium flux (AID 2121); type: ADME
[15] = target: Mannose-6-phosphate isomerase (Homo sapiens, UniProt P34949); experiment: human PMI inhibitors, high substrate, primary screen, biochemical, fluorescence intensity, high mannose 6-phosphate (AID 1220)
cells [16] = experiment: cells
[17] = target: T5, Nuclear receptor subfamily 0 group B member 1 (Homo sapiens, UniProt P51843); type: functional, cell-based;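 further: HEK293T cells transfected with SF-1 and DAX-1 plus StAR promoter luciferase reporter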
T5 sequence (P51843 whole entry): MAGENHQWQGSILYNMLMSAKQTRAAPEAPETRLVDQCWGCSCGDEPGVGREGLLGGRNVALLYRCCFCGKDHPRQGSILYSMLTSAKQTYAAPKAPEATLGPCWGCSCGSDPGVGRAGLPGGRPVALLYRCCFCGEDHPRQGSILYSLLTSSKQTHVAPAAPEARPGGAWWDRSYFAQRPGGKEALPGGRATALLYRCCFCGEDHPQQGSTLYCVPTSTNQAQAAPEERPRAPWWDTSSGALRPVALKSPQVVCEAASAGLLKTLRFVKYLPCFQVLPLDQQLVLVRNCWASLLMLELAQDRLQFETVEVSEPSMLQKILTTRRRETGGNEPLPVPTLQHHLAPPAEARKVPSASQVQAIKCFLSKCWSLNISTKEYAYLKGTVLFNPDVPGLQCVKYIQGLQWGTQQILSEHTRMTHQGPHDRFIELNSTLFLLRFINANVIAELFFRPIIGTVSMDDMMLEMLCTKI

[18] = target: T6, Oxysterols receptor LXR-beta (Homo sapiens, UniProt P55055); type: functional, cell-based;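 further: Cell-based luminescence dose-response assay of agonist activity at LXR, run as a confirmatory counterscreen to a daf-12 agonist screen; HEK293 cells with Gal4-LXR fusion and GAL4-driven luciferase reporter; agonist potency from rising luciferase signal of a Gal4-LXR reporter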
T6 sequence (P55055 whole entry): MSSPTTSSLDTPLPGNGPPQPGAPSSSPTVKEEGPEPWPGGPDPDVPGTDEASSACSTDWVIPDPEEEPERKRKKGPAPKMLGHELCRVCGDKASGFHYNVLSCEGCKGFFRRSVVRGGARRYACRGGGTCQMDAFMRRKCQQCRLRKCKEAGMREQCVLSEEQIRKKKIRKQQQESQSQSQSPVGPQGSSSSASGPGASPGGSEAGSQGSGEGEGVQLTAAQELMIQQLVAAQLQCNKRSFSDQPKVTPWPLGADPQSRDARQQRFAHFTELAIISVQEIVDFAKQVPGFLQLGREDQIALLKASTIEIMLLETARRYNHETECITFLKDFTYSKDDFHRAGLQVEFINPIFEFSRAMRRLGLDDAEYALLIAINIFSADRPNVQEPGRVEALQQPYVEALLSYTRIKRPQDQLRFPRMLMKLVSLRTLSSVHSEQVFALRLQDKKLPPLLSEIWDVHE

cells [19] = type: functional, cell-based

T4 sequence (P11940 whole entry): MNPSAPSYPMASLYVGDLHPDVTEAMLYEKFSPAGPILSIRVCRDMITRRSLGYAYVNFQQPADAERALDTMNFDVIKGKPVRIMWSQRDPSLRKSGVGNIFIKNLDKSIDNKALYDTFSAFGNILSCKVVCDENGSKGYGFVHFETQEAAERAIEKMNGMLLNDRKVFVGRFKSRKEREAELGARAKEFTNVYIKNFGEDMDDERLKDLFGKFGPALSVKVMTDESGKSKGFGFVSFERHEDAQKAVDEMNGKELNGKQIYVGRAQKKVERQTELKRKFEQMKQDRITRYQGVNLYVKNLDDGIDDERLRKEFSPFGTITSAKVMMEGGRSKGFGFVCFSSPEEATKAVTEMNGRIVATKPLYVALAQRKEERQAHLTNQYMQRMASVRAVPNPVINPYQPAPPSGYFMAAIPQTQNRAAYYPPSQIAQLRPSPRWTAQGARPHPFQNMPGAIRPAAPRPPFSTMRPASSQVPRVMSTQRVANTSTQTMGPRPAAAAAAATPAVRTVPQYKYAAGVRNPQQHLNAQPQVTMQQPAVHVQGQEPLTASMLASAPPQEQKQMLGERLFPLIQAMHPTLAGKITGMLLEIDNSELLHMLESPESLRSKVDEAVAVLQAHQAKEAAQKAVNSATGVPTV
Chain of Glutathione-S-transferase (Q26513 whole entry): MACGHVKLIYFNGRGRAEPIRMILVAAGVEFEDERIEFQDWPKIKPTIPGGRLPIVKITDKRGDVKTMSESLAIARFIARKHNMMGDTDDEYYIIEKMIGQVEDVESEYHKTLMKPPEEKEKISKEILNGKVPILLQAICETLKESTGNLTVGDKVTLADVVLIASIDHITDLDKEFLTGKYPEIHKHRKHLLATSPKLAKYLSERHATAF
Chain of Voltage-gated inwardly rectifying potassium channel KCNH2 (Q12809 whole entry): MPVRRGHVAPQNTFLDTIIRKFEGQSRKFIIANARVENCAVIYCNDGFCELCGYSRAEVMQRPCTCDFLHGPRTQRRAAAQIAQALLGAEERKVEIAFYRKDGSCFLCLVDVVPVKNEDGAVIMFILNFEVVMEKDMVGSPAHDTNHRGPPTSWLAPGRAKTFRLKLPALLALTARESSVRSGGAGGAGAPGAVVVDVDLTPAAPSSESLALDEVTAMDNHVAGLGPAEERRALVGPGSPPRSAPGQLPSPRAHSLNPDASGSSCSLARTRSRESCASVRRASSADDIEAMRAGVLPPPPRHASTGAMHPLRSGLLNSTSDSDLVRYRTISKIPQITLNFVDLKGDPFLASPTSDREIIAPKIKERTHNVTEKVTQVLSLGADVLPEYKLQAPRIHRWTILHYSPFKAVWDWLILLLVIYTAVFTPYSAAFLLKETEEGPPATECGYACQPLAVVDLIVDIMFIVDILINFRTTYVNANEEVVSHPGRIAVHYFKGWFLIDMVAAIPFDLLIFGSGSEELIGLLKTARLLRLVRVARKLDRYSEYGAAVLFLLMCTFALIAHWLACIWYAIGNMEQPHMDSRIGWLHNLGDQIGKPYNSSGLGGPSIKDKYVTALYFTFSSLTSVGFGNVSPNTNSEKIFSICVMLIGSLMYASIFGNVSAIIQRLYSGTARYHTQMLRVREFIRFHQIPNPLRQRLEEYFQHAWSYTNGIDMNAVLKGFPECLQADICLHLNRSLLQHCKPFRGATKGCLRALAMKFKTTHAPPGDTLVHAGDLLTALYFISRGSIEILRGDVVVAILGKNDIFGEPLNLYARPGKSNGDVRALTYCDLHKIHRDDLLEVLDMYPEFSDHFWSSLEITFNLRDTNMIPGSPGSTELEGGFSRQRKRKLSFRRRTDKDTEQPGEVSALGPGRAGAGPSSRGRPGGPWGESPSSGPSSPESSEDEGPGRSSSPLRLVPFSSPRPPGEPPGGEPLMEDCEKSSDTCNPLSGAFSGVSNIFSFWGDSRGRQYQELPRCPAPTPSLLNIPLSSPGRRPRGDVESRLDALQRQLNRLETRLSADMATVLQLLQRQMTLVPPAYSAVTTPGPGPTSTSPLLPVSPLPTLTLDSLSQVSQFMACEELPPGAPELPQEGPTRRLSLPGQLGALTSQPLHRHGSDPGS
Chain of Mannose-6-phosphate isomerase (P34949 whole entry): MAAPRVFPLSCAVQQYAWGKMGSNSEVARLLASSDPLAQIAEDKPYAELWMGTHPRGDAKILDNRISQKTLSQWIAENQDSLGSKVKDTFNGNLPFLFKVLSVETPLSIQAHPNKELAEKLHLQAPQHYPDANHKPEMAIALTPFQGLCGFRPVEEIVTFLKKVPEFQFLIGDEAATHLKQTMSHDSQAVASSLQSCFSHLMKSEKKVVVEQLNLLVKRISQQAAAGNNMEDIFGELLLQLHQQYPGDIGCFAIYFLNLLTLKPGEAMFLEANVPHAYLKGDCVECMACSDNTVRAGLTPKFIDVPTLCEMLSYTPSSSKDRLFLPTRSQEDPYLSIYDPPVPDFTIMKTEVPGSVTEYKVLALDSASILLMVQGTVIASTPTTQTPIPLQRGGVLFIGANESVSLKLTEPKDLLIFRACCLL
Chain of Photoreceptor-specific nuclear receptor (Q9Y5X4 whole entry): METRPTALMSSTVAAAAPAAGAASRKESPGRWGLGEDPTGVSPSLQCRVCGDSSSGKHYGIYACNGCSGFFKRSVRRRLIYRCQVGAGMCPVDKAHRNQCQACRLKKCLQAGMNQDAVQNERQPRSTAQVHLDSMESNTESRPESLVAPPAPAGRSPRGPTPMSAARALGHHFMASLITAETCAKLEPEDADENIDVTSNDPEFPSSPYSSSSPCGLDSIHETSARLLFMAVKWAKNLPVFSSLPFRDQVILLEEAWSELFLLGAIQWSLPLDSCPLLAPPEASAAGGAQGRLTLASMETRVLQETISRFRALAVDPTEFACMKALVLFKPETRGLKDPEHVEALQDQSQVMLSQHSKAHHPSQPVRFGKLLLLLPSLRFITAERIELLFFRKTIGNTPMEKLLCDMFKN
Chain of Protein Wnt-3a (P27467 whole entry): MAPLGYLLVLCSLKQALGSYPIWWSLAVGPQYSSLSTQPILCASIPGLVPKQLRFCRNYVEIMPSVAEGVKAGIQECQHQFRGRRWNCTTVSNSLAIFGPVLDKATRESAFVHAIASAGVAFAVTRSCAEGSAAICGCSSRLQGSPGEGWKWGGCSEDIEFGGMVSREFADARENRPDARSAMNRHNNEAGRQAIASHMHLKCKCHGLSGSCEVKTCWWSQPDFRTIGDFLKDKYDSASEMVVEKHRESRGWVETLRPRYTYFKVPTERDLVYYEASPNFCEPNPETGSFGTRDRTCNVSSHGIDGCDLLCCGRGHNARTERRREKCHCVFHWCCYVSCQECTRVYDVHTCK

EC50 [1]: > 300 µM (not active)
AC50 [2]: 17 µM (active)
EC50 [4]: > 300 µM (not active)
IC50 [5]: > 100 µM (active)
IC50 [6]: > 66 µM (inactive)
IC50 [7]: > 66 µM (inactive)
Structure (SMILES): CCn1c(C)cc(=S)c2ccccc21
CC50 [3]: > 40 µM (active)

Structure (SMILES): CCN(CC)S(=O)(=O)c1ccc(S(=O)(=O)Nc2c(C)nn(C)c2C)cc1
AC50 [8]: 1.06 µM (active)
IC50 (Protein Wnt-3a): 8.16 µM (active)
AC50 [9]: 2.24 µM (active)
AC50 [10]: 36.6 µM (active)
AC50 [11]: 27.4 µM (active)

IC50 [12]: 4.93 µM (active)
IC50 [13]: 6 µM (active)
EC50 [1]: > 300 µM (not active)
EC50 [4]: > 300 µM (inconclusive)
Structure (SMILES): CC(=O)c1ccc(C(=O)Nc2sc3c(c2C(N)=O)CCN(Cc2ccccc2)C3)cc1

Structure (SMILES): CCOc1ccccc1NC(=S)NC(=O)c1ccco1
EC50 [14]: 1.25 µM (active)

Structure (SMILES): CNC(=O)c1ccc(NC(=O)CN2c3cccc4cccc(c34)S2(=O)=O)cc1
EC50 [14]: 7.62 µM (active)

IC50 [5]: > 100 µM (active)
IC50 [15]: > 50 µM (not active)
Structure (SMILES): COc1ccc(NC(=O)N2c3ccc(OC)cc3C(C)=CC2(C)C)cc1
CC50 [3]: > 40 µM (active)

Structure (SMILES): O=C(Nc1ccccn1)c1sc2cccc(F)c2c1Cl
EC50 (cells [16]): > 67.6 µM (inactive)
IC50 [17]: > 0.834 µM (active)
EC50 [18]: > 67.6 µM (inactive)
IC50 (cells [19]): > 67.6 µM (inactive)
